Our source for the target mRNA inhibition values is the OligoGym collection.

After the bases stand the sugars from the 5' end (letter, count) and the backbone: PS all phosphorothioate, else s phosphorothioate and o phosphodiester by linkage. Methylation of C is not given here. e = 2'-O-(2-methoxyethyl) (MOE); k = constrained ethyl (cEt); d = 2'-deoxy (DNA); m = 2'-O-methyl

This series has as its target HSD17B13. Particulars: ASO, HepaRG.

Where the note is “1 µM”, “ATAGUCCATGCAAAAG (sugars k3 d1 m1 d8 k3, PS)” showed a target mRNA inhibition of 57%.

Turning to AGAGCGATAGATCTCT (sugars k3 d10 k3, PS), the target mRNA inhibition (1 µM) is 8%.

Take AAACTAGTGGTAATGG (sugars k3 d10 k3, PS): under “1 µM”, the target mRNA inhibition is 47%.

“CGTTTTGGGCTAATGA (sugars kkdddddddddkekek, PS)” registered a target mRNA inhibition (1 µM) of 37%.

For “AAATATGTCCAGGTTG (sugars k3 d9 k3 e1, PS)”, the target mRNA inhibition reads like this: (0.02 µM) 3%; (0.078 µM) 0%; (0.313 µM) 16%; (1 µM) 74%; (1.25 µM) 60%; (5 µM) 88%.

Turning to “TAGAGTCGGTCACCTT (sugars k3 d1 m1 d8 k3, PS)”, the target mRNA inhibition (1 µM) was determined as 55%.

For the setting “1 µM”, TGTATAGCTGCATTTC (sugars k3 d10 k3, PS) returned a target mRNA inhibition of 37%.

Sequence GTAAGAGTCAGTATCC (sugars k3 d10 k3, PS) yielded a target mRNA inhibition (1 µM) of 47%.

For the setting “1 µM”, “TAAACATCTCTGGGAC (sugars kkdddddddddkekek, PS)” yielded a target mRNA inhibition of 39%.

Under “1 µM”, TGCTATAGTAATCACA (sugars k3 d10 k3, PS) displayed a target mRNA inhibition of 65%.

The sequence ATAACCTAATAACTAC (sugars k3 d10 k3, PS) returned a target mRNA inhibition (1 µM) of 26%.

In turn, CTGTCTCCAATACAGG (sugars k3 d10 k3, PS) gave a target mRNA inhibition (1 µM) of 29%.

As for “GCACCGTTTTGGGCTA (sugars kkdddddddddkekek, PS)”, under “1 µM”, the target mRNA inhibition came out at 49%.

Under “1 µM”, CCTCCACACCGCGCTT (sugars k3 d10 k3, PS) yielded a target mRNA inhibition of 16%.

GACCAAGTAGCTTACA (sugars k3 d10 k3, PS) showed a target mRNA inhibition (1 µM) of 28%.

Regarding GGTTGAGATAAAGCTG (sugars k3 d10 k3, PS), the target mRNA inhibition by setting is: (0.02 µM) 0%; (0.078 µM) 0%; (0.313 µM) 37%; (1 µM) 76%; (1.25 µM) 65%; (5 µM) 86%.

“AATAGCCAGTACAGTT (sugars k3 d9 k3 e1, PS)”: the target mRNA inhibition (1 µM) was found to be 61%.

TGAATCATGATTGAAT (sugars k3 d10 k3, PS) registered a target mRNA inhibition (1 µM) of 38%.

On to “GTGGCATGGCTACAGA (sugars kkdddddddddkekek, PS)”, for which the target mRNA inhibition (1 µM) came out at 59%.

For the sequence AACAATCTCCCCAGCC (sugars k3 d10 k3, PS), the target mRNA inhibition (1 µM) was determined as 59%.

For TGCTACTTGAACAGTC (sugars k3 d10 k3, PS), the target mRNA inhibition was 3% (0.02 µM); 22% (0.078 µM); 49% (0.313 µM); 81% (1 µM); 78% (1.25 µM); 89% (5 µM).

In turn, ATGAGGTTTTGATACC (sugars k3 d10 k3, PS) came in with a target mRNA inhibition (1 µM) of 47%.

Sequence CTTGCAGAAATTCACC (sugars k3 d10 k3, PS) returned a target mRNA inhibition (1 µM) of 40%.

On to “ACCAAACTTCCAGCAG (sugars k3 d9 k3 e1, PS)”, for which, where the note is “1 µM”, the target mRNA inhibition is 36%.

CTGGTTTCATAACCTA (sugars k3 d10 k3, PS) came in with a target mRNA inhibition (1 µM) of 9%.

Under “1 µM”, AATAACTGTTCTCCCC (sugars k3 d10 k3, PS) gave a target mRNA inhibition of 20%.

The sequence GAAGTTTTTAAGAGGC (sugars k3 d10 k3, PS) yielded a target mRNA inhibition (1 µM) of 64%.

For GTTATAAGTTTCATGT (sugars k3 d10 k3, PS), where the note is “1 µM”, the target mRNA inhibition is 21%.

For the setting “1 µM”, GATTTGAAGGTTAGAT (sugars k3 d10 k3, PS) came in with a target mRNA inhibition of 47%.

CTGTAGGACTCTGCTC (sugars k3 d10 k3, PS): the target mRNA inhibition (1 µM) is 48%.

GATACCAGTTTTTCCC (sugars k3 d10 k3, PS) yielded a target mRNA inhibition (1 µM) of 75%.

The sequence TTGATTCGAAACTATT (sugars k3 d10 k3, PS) showed a target mRNA inhibition (1 µM) of 55%.

CGTAGCAAATGTAAGA (sugars k3 d10 k3, PS) returned a target mRNA inhibition (1 µM) of 0%.

For AGTCCATGCAAAAGCA (sugars k3 d10 k3, PS), the target mRNA inhibition amounted to 1% (0.02 µM); 14% (0.078 µM); 38% (0.313 µM); 77% (1 µM); 55% (1.25 µM); 78% (5 µM).

For the sequence ATAATGGGCAGAGCTG (sugars k3 d10 k3, PS), the target mRNA inhibition (1 µM) is 53%.

“GCTGTAAGAGTCAGTA (sugars k3 d9 k3 e1, PS)” came in with a target mRNA inhibition (1 µM) of 52%.

As to “TATGTAATAGCCAGTA (sugars k3 d9 k3 e1, PS)”, the target mRNA inhibition reads like this: (0.02 µM) 23%; (0.078 µM) 28%; (0.313 µM) 53%; (1 µM) 82%; (1.25 µM) 78%; (5 µM) 93%.

Sequence ATATTGATATACGATG (sugars k3 d10 k3, PS) came in with a target mRNA inhibition (1 µM) of 0%.

For “TGCTGCATTAATGCCA (sugars kkdddddddddkekek, PS)”, the target mRNA inhibition (1 µM) came out at 30%.

“GTTGATATTCTGTGGC (sugars kkdddddddddkekek, PS)” returned a target mRNA inhibition (1 µM) of 69%.

In the case of “TTGAATAGCAAGCCAA (sugars k3 d1 m1 d8 k3, PS)”, for the setting “1 µM”, the target mRNA inhibition is 30%.

Under “1 µM”, TTTAGCAGCTTGGAAG (sugars k3 d10 k3, PS) came in with a target mRNA inhibition of 43%.

Under “1 µM”, “TCACCTTTCATAATGT (sugars kkdddddddddkekek, PS)” registered a target mRNA inhibition of 31%.

For the sequence “AGAGGATAGTCCATGC (sugars k3 d9 k3 e1, PS)”, the target mRNA inhibition by setting is: (0.02 µM) 0%; (0.078 µM) 3%; (0.313 µM) 40%; (1 µM) 78%; (1.25 µM) 50%; (5 µM) 44%.

For TAGTTTGGTGGGCATG (sugars k3 d10 k3, PS), for the setting “1 µM”, the target mRNA inhibition was 28%.

“GATGUAGTGGGAGTCG (sugars k3 d1 m1 d8 k3, PS)” displayed a target mRNA inhibition (1 µM) of 35%.

As for TTCGAAACTATTCATA (sugars k3 d10 k3, PS), the target mRNA inhibition (1 µM) was found to be 44%.

For the setting “1 µM”, ATCCCAACCAAACTTC (sugars k3 d10 k3, PS) yielded a target mRNA inhibition of 15%.

AGCATTGATTCGAAAC (sugars k3 d10 k3, PS) had a target mRNA inhibition (1 µM) of 70%.

Consider “ATGAGGTTTTGATACC (sugars k3 d1 m1 d8 k3, PS)”, for which, under “1 µM”, the target mRNA inhibition stood at 49%.

On to GTTGACTAATGCAAGA (sugars k3 d10 k3, PS), for which the target mRNA inhibition (1 µM) was found to be 59%.

As for TCATCCTTGGTGCTGA (sugars k3 d10 k3, PS), where the note is “1 µM”, the target mRNA inhibition is 12%.

Where the note is “1 µM”, TATACATCAACTCCTC (sugars k3 d10 k3, PS) came in with a target mRNA inhibition of 39%.

Sequence TTGCAGCATTGATTCG (sugars k3 d10 k3, PS) displayed a target mRNA inhibition (1 µM) of 59%.

For “TAGCTGTGCACTCATT (sugars k3 d9 k3 e1, PS)”, the target mRNA inhibition reads like this: (0.02 µM) 3%; (0.078 µM) 0%; (0.313 µM) 8%; (1 µM) 66%; (1.25 µM) 57%; (5 µM) 76%.

For CTCATTTATGTACCAA (sugars k3 d10 k3, PS), the target mRNA inhibition runs as follows: (0.02 µM) 0%; (0.078 µM) 50%; (0.313 µM) 75%; (1 µM) 87%; (1.25 µM) 79%.

As to CCAGATTGCACAAACC (sugars k3 d10 k3, PS), the target mRNA inhibition is 0% (0.02 µM); 17% (0.078 µM); 51% (0.313 µM); 72% (1 µM); 78% (1.25 µM); 92% (5 µM).

For the sequence TGTTTTAGTATTTGGG (sugars k3 d10 k3, PS), the target mRNA inhibition (1 µM) worked out at 48%.

For TACAGACTAAGGGACC (sugars k3 d10 k3, PS), the target mRNA inhibition (1 µM) was 68%.

CATCTATCAGACTTCT (sugars k3 d10 k3, PS): the target mRNA inhibition (1 µM) came out at 38%.

In turn, AGACAATACAGGATAG (sugars k3 d10 k3, PS) came in with a target mRNA inhibition (1 µM) of 15%.

Consider ATACAGGCCATAATCT (sugars k3 d10 k3, PS), for which the target mRNA inhibition (1 µM) worked out at 0%.

CTGGGATAGTGGAGGA (sugars k3 d10 k3, PS) displayed a target mRNA inhibition (1 µM) of 21%.

TGTAAGAGTCAGTATC (sugars k3 d10 k3, PS) registered a target mRNA inhibition (1 µM) of 43%.

The sequence CTAGAATTAAGGGCTA (sugars k3 d10 k3, PS) had a target mRNA inhibition (1 µM) of 42%.

Take TTCGGCACTCAGCTGC (sugars k3 d10 k3, PS): the target mRNA inhibition (1 µM) worked out at 41%.

Consider “AGCAGAATTGTGAACG (sugars kkdddddddddkekek, PS)”, for which the target mRNA inhibition (1 µM) turned out to be 31%.

As for TGCAAAATGTGATGCC (sugars k3 d10 k3, PS), the target mRNA inhibition (1 µM) is 69%.

For the sequence CGCCTAGTTTTCGGCA (sugars k3 d10 k3, PS), under “1 µM”, the target mRNA inhibition amounted to 23%.

With “CTATAGTAATCACAAG (sugars k3 d9 k3 e1, PS)”, the target mRNA inhibition (1 µM) is 53%.

Take GGAAAGGATATTTGGC (sugars k3 d10 k3, PS): the target mRNA inhibition (1 µM) is 58%.

Regarding CTTATGTAATAGCCAG (sugars k3 d10 k3, PS), the target mRNA inhibition (1 µM) worked out at 74%.

Take “AGCTTTTGTCCACCTT (sugars kkdddddddddkekek, PS)”: the target mRNA inhibition (1 µM) is 62%.

With TTTGACTGCTGCTAGT (sugars k3 d10 k3, PS), the target mRNA inhibition (1 µM) was found to be 21%.

The sequence “ACTGCTGCTAGTGCCA (sugars k3 d1 m1 d8 k3, PS)” had a target mRNA inhibition (1 µM) of 64%.

ACAAGTAAGGTAAAGT (sugars k3 d10 k3, PS) registered a target mRNA inhibition (1 µM) of 38%.

With ACGATGTGGCCATGAT (sugars k3 d10 k3, PS), the target mRNA inhibition (1 µM) amounted to 52%.
